Results on 17 compounds are retold here after patent US11046686B2, “Thiadiazole IRAK4 compounds” (Gilead Sciences, Inc., priority 2018, dated 2021).

pEC50, pIC50: −log10 of the molar value. Like-named read-outs stand apart in the source and are kept apart here.

One experiment concerns TNFα. Nature of the experiment: IRAK4 Monocyte TNFα Cell Based Assay. On the set-up: species or system human. An outline of the steps: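 TNFα release quantified by HTRF (cryptate/XL665 antibody pair, overnight at RT) after 1 h compound pre-incubation (0.1% DMSO) and 4 h LPS challenge at 50 pg/ml, 37 °C, 5,000 monocytes per well. Signal ratio normalised between unstimulated (0%) and stimulated (100%) controls.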

The next experiment addresses IRAK4 enzyme (Homo sapiens (Human), UniProt Q9NWZ3). Nature of the experiment: IRAK4 Biochemical Assay (TR-FRET, STK1 KinEASE). Here is the method:
IRAK4 enzyme (Carna Biosciences, Chuo-ku, Kobe, Japan) activity was measured by detecting phosphorylated peptide substrate formation using an antibody against the phosphorylated peptide substrate. This is a time-resolved fluorescence resonance energy transfer (TR-FRET) immunoassay, based on the STK1 KinEASE Assay (Cisbio, Bedford, Mass.). The assay was designed as a simple two-step, endpoint assay (a 5 μl enzyme reaction followed by 5 μl stop and detect Solution) performed in ProxiPlate-384 Plus plates (Perkin Elmer, Waltham, Mass.). […] Compounds diluted in DMSO were spotted into 384 well plates using a Labcyte® Echo 550 Liquid Handling System prior to addition of IRAK4 enzyme and peptide substrate. Reaction solutions were delivered using a Multi-Flo (Bio-Tek Instruments). The enzyme and peptide solution was incubated with compound for 15 minutes at room temp before the reaction was initiated by the addition of ATP. The standard 5 μl reaction mixture contained 500 μM ATP, […] peptide (STK1 Peptide), 0.75 nM of IRAK4 in reaction buffer (50 mM HEPES, pH 7.0, 0.02% NaN3, 0.01% BSA, 0.1 mM Orthovanadate, 5 mM […], 0.025% NP-40, 1 mM DTT). After 120 min of incubation at room temperature, 5 μl of Stop and Detect Solution (1:100 Cryptate labeled anti-phosphorylated peptide antibody solution and 125 nM Tracer in a 50 mM HEPES pH 7.0 detection buffer containing sufficient EDTA) was added. The plate was then further incubated for 60 minutes at room temperature and read on Envision 2103 Multilabeled reader (PerkinElmer) with excitation/emission/FRET emission at 340 nm/615 nm665 nm, respectively. Fluorescence intensities at 615 nm and 665 nm emission wavelengths were expressed as aratio (665 nm/615 nm). Percentage of inhibition was calculated as below: % Inhibition=100×(Ratiosample−Ratio0% Inhibition)/(Ratio100% Inhibition−Ratio0% Inhibition)
The 0% inhibition value comes from control wells lacking inhibitor.
Background: TR-FRET usually uses a lanthanide donor and a delayed reading to cut background.

The mark [1] stands for this setting: Homo sapiens, Monocyte, read-out: EC50 MONO TNF HTRF.
The mark [2] stands for this setting: Homo sapiens, Monocyte, human monocytes, second part of Table 2, compounds 33-343, unit inferred, read-out: EC50 MONO TNF HTRF.
[3] abbreviates: Homo sapiens, Monocyte, human monocytes, LPS stimulated, compounds 1-32, read-out: EC50 TNF.
The mark [4] stands for this setting: compounds 1-32, read-out: IC50 HTRF.

IRAK4 enzyme, sequence (Q9NWZ3 whole entry): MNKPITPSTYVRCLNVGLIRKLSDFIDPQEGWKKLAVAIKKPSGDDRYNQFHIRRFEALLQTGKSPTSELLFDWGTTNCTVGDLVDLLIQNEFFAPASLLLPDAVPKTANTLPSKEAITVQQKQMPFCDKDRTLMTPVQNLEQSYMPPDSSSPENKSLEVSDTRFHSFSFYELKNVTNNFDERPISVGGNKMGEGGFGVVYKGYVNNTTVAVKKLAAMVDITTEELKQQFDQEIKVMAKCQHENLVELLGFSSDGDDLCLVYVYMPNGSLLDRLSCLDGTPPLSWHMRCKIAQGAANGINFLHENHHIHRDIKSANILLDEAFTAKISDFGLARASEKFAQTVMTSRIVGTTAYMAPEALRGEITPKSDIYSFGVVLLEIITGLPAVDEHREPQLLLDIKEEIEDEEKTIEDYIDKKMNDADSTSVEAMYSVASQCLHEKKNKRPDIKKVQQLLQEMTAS

As usually defined, the pEC50 is the negative decadic logarithm of the EC50, by convention in mol/L. As a reminder, the pIC50 is the IC50 on a negative log10 scale, so that one unit is a factor of ten. Regarding `CC(=O)N1C2CCC1CN(c1nnc(-c3cnc(-c4ccc5cc(C#N)cnn45)cc3NC(C)C)s1)C2` [Compound 259, 7-(5-(5-(8-acetyl-3,8-diazabicyclo[3.2.1]octan-3-yl)-1,3,4-thiadiazol-2-yl)-4-(isopropylamino)pyridin-2-yl)pyrrolo[1,2-b]pyridazine-3-carbonitrile], in the experiment with TNFα (setting [1]), the negative-log EC50 (pEC50) was 8.59. At IRAK4 enzyme, this compound had a pIC50 of 9.03.
`CC(C)Nc1cc(-c2ccc3cc(C#N)cnn23)ncc1-c1nnc(N2CC3CCC(C2)N3C(=O)C2CC2)s1` [Compound 263, 7-(5-(5-(8-(cyclopropanecarbonyl)-3,8-diazabicyclo[3.2.1]octan-3-yl)-1,3,4-thiadiazol-2-yl)-4-(isopropylamino)pyridin-2-yl)pyrrolo[1,2-b]pyridazine-3-carbonitrile]: the pEC50 in the experiment with TNFα (setting [1]) is 8.29. Besides, the negative-log IC50 (pIC50) on IRAK4 enzyme is 8.97.
Taken in the same sequence, the figures for `CC(=O)N1[C@@H]2COC[C@H]1CN(c1nnc(-c3cnc(-c4ccc5cc(C#N)cnn45)cc3NC(C)C)s1)C2` [Compound 265, 7-(5-(5-((1R,5S)-9-acetyl-3-oxa-7,9-diazabicyclo[3.3.1]nonan-7-yl)-1,3,4-thiadiazol-2-yl)-4-(isopropylamino)pyridin-2-yl)pyrrolo[1,2-b]pyridazine-3-carbonitrile] were 7.95 and 8.61.
As to `CC(=O)N1CCN(c2nnc(-c3cnc(-c4ccc5cc(C#N)cnn45)cc3NC(C)C)s2)C2CC21` (stereo not shown) [Compound 267, 7-(5-(5-(5-acetyl-2,5-diazabicyclo[4.1.0]heptan-2-yl)-1,3,4-thiadiazol-2-yl)-4-(isopropylamino)pyridin-2-yl)pyrrolo[1,2-b]pyridazine-3-carbonitrile], the negative-log EC50 (pEC50) in the experiment with TNFα (setting [2]) was 7.72. The negative logarithm of the IC50 (pIC50) at IRAK4 enzyme is 9.19.
With `CC(=O)NC12CC(c3nnc(-c4cnc(-c5ccc6cc(C#N)cnn56)cc4NC4CCOCC4)s3)(C1)C2` [Compound 270, N-(3-(5-(6-(3-cyanopyrrolo[1,2-b]pyridazin-7-yl)-4-((tetrahydro-2H-pyran-4-yl)amino)pyridin-3-yl)-1,3,4-thiadiazol-2-yl)bicyclo[1.1.1]pentan-1-yl)acetamide], the negative logarithm of the EC50 (pEC50) in the experiment on TNFα (setting [2]) is 7.97. The compound also had a pIC50 against IRAK4 enzyme of 9.19.
`CC(C)Nc1cc(-c2ccc3cc(C#N)cnn23)ncc1-c1nnc(N2CC3CC(C2)N3C(=O)OC(C)(C)C)s1` [Compound 271, tert-butyl 3-(5-(6-(3-cyanopyrrolo[1,2-b]pyridazin-7-yl)-4-(isopropylamino)pyridin-3-yl)-1,3,4-thiadiazol-2-yl)-3,6-diazabicyclo[3.1.1]heptane-6-carboxylate]: the negative logarithm of the EC50 (pEC50) with TNFα (setting [1]) was 7.05. The negative logarithm of the IC50 (pIC50) against IRAK4 enzyme was 8.49.
Turning to `CC(C)Nc1cc(-c2ccc3cc(C#N)cnn23)ncc1-c1nnc(N2CC3CC(C2)N3C(=O)C(C)(C)O)s1` [Compound 273, 7-(5-(5-(6-(2-hydroxy-2-methylpropanoyl)-3,6-diazabicyclo[3.1.1]heptan-3-yl)-1,3,4-thiadiazol-2-yl)-4-(isopropylamino)pyridin-2-yl)pyrrolo[1,2-b]pyridazine-3-carbonitrile], the pEC50 in the experiment on TNFα (setting [1]) is 8.39. On IRAK4 enzyme, this compound showed a pIC50 of 9.17.
In the case of `CC(C)Nc1cc(-c2ccc3cc(C#N)cnn23)ncc1-c1nnc(N2C3CNCC2C3)s1` [Compound 274, 7-(5-(5-(3,6-diazabicyclo[3.1.1]heptan-6-yl)-1,3,4-thiadiazol-2-yl)-4-(isopropylamino)pyridin-2-yl)pyrrolo[1,2-b]pyridazine-3-carbonitrile], the negative-log EC50 (pEC50) in the experiment on TNFα (setting [1]) is 7.39. This compound gave a negative-log IC50 (pIC50) against IRAK4 enzyme of 8.80.
With `CC(C)Nc1cc(-c2ccc3cc(C#N)cnn23)ncc1-c1nnc(N2C3CC2CN(C(=O)C(C)(C)O)C3)s1` [Compound 275, 7-(5-(5-(3-(2-hydroxy-2-methylpropanoyl)-3,6-diazabicyclo[3.1.1]heptan-6-yl)-1,3,4-thiadiazol-2-yl)-4-(isopropylamino)pyridin-2-yl)pyrrolo[1,2-b]pyridazine-3-carbonitrile], the negative-log EC50 (pEC50) with TNFα (setting [2]) is 8.19. Moreover, the pIC50 against IRAK4 enzyme is 9.11.
Take `CC(C)Nc1cc(-c2ccc3cc(C#N)cnn23)ncc1-c1nnc(N2C3CC2CN(C(=O)N2CCN(C)CC2)C3)s1` [Compound 277, 7-(4-(isopropylamino)-5-(5-(3-(4-methylpiperazine-1-carbonyl)-3,6-diazabicyclo[3.1.1]heptan-6-yl)-1,3,4-thiadiazol-2-yl)pyridin-2-yl)pyrrolo[1,2-b]pyridazine-3-carbonitrile]: the pEC50 with TNFα (setting [1]) was 7.95. Further, at IRAK4 enzyme, the negative logarithm of the IC50 (pIC50) is 9.03.
Take `CC(=O)NC12CCC(c3nnc(-c4cnc(-c5ccc6cc(C#N)cnn56)cc4NC(C)C)s3)(CC1)CC2` [Compound 280, N-(4-(5-(6-(3-cyanopyrrolo[1,2-b]pyridazin-7-yl)-4-(isopropylamino)pyridin-3-yl)-1,3,4-thiadiazol-2-yl)bicyclo[2.2.2]octan-1-yl)acetamide]: in the experiment with TNFα (setting [2]), the pEC50 is 8.13. The pIC50 on IRAK4 enzyme was 8.99.
For the compound `CNC(=O)[C@@H]1CCCN1c1nnc(-c2cnc(-c3ccc4cc(C#N)cnn34)cc2NC2COC2)s1` [Compound 332], in the experiment with TNFα (human monocytes, second part of Table 2, compounds 33-343, unit inferred, read-out: EC50 MONO TNF HTRF), the pEC50 was 6.36. Also, the negative logarithm of the IC50 (pIC50) on IRAK4 enzyme (second part of Table 2, compounds 33-343, unit inferred, read-out: IC50 IRAK4-HTBS) was 8.79.
`CC(C)Nc1cc(-c2ccc3cc(C#N)cnn23)ncc1-c1nnc(CCNC(=O)OC(C)(C)C)s1` [Example 1, tert-butyl (2-(5-(6-(3-cyanopyrrolo[1,2-b]pyridazin-7-yl)-4-(isopropylamino)pyridin-3-yl)-1,3,4-thiadiazol-2-yl)ethyl)carbamate]: in the experiment with TNFα (setting [3]), the pEC50 was 6.51. Further, the pIC50 on IRAK4 enzyme (setting [4]) was 8.82.
On to `CC(=O)N[C@H]1CC[C@H](c2nnc(-c3cnc(-c4ccc5cc(C#N)cnn45)cc3N[C@H]3CC[C@H](c4nnc(C(F)F)o4)CC3)s2)CC1` [Example 2, N-((1R,4r)-4-(5-(6-(3-cyanopyrrolo[1,2-b]pyridazin-7-yl)-4-(((1r,4R)-4-(5-(difluoromethyl)-1,3,4-oxadiazol-2-yl)cyclohexyl)amino)pyridin-3-yl)-1,3,4-thiadiazol-2-yl)cyclohexyl)acetamide], for which, in the experiment on TNFα (setting [3]), the pEC50 is 8.10. Besides, the pIC50 on IRAK4 enzyme (setting [4]) is 9.00.
Taken in the same sequence, the figures for `CC(=O)N[C@H]1CC[C@H](c2nnc(-c3cnc(-c4ccc5cc(C#N)cnn45)cc3NC3(C)COC3)s2)CC1` [Example 3, N-((1r,4r)-4-(5-(6-(3-cyanopyrrolo[1,2-b]pyridazin-7-yl)-4-((3-methyloxetan-3-yl)amino)pyridin-3-yl)-1,3,4-thiadiazol-2-yl)cyclohexyl)acetamide] were 7.82 and over 9.00.
`CC(C)Nc1cc(-c2ccc3cc(C#N)cnn23)ncc1-c1nnc(N2CCC3(CC2)COC3)s1` [Example 4, 7-(5-(5-(2-oxa-7-azaspiro[3.5]nonan-7-yl)-1,3,4-thiadiazol-2-yl)-4-(isopropylamino)pyridin-2-yl)pyrrolo[1,2-b]pyridazine-3-carbonitrile]: the pEC50 with TNFα (setting [3]) is 7.64. The pIC50 at IRAK4 enzyme (setting [4]) was 9.00.
Consider `CC(C)Nc1cc(-c2ccc3cc(C#N)cnn23)ncc1-c1nnc(CO)s1` [Example 5, 7-(5-(5-(hydroxymethyl)-1,3,4-thiadiazol-2-yl)-4-(isopropylamino)pyridin-2-yl)pyrrolo[1,2-b]pyridazine-3-carbonitrile], for which, in the experiment with TNFα (setting [3]), the negative logarithm of the EC50 (pEC50) was 7.12. For the same compound, at IRAK4 enzyme (setting [4]), the pIC50 is 9.00.
